We go through 62 molecules from a melting point compilation (Tetko et al.; mined from patent text by program, amines drawn as free bases though some values may be those of a salt).

Broadly, the melting point is the temperature of the solid-liquid transition.

Bounds are passed on as bounds.

On to `COCc1nnc(-c2cccnc2)n1-c1c(Cl)c(C)cc2nc(OC)c(OC)nc12`, for which the melting point lay in the range of 183 to 184 °C. Consider `ON=C1CCN(CC2CCCO2)CC1` (configuration not stated), for which the melting point was in the range of 104 to 106 °C.

For `O=C(Nc1ccc(C2=CN(C(=O)OCc3ccccc3)CCC2)c(F)c1)OCc1ccccc1`, the melting point was in the range of 138 to 139 °C.

`CC(=O)Oc1ccc(C=Cc2ccc3ccccc3n2)cc1`: the melting point is 127 to 128 °C. To `COc1ccc(S(=O)(=O)C(CC=C(C)C)(Cc2cccnc2)C(=O)O)cc1` (configuration not stated) belongs 117 to 119 °C; to `CS(=O)(=O)c1ccc(-c2nn3cc(C(F)(F)F)oc3c2-c2ccc(F)cc2)cc1`, 186 to 189 °C; to `CC(C)n1nc(-c2nc(N)cnc2-c2ccccc2)ccc1=O`, 214 to 217 °C. Molecule `CCOC(=O)OCSCC1=C(C(=O)OCC)C(c2cccc([N+](=O)[O-])c2)C(C(=O)OCC)=C(C)N1` (configuration not stated) displayed a melting point of 83 to 85 °C. In the case of `COC(=Cc1ccc(-c2cccc(N(C)C(=O)NCCc3ccccc3)c2)cc1)C(=O)O` it was 144 °C. To `CC(C)(C)c1cc(CO)c(O)c(CO)c1` belongs 68 to 73 °C; to `O=C(O)CCCNC(=O)CCCCC1CCSS1` (configuration not stated), 56 to 58 °C.

`CN(C)C1(c2ccccc2)CCC(CNC(=O)N2CC=C(c3c[nH]c4ccc(Cl)cc34)CC2)CC1` (configuration not stated) had a melting point of 183 to 185 °C. On to `CCCCCC(=O)OCn1cc(F)c(=O)[nH]c1=O`, for which the melting point lay in the range of 95 to 96 °C.

`CC1SC(=O)NN=C1c1ccc2c(c1)C(C)(C)C(=O)N2C(=O)Oc1ccccc1` (configuration not stated): the melting point was 248 °C. For `COC(=O)c1cccc2c(C)c(C)oc12`, the melting point lay in the range of 54.5 to 55.5 °C. For the molecule `C=CCN(CC=C)Cc1csc(-c2ncn3c2CN(C)C(=O)c2cc(F)ccc2-3)n1`, the melting point is 125 to 127 °C.

Molecule `NC(=O)c1ccc(NC(=NC(=O)c2cccc(Br)c2)NC(=O)c2ccccc2)cc1` came in with a melting point of 282 to 283 °C.

`N#Cc1nc(-c2ccc(=O)[nH]c2)c(-c2ccccc2)nc1N` returned a melting point of 243 to 248 °C. Molecule `COc1cccc2c(=O)n3ccsc3nc12` yielded a melting point of 230 to 232 °C. Consider `Nc1ncc(CN2CCN(c3ccccc3)CC2)c2nc(-c3ccco3)nn12`, for which the melting point was 185 to 187 °C.

Molecule `Cc1ccc(C(=O)Nc2ccc(N3CCN(Cc4cccc(C#N)c4)CC3)cc2)c(-c2ccc(C(C)C)cc2)c1` returned a melting point of 167 to 169 °C. As for `CC(C)(C)C(=O)C(=Cc1cccnc1)Oc1ccc(Cl)cc1`, the melting point is 74 to 76 °C. In the case of `CCCCn1c(N)c(N=O)c(=O)n(CCCC)c1=O` it was 199 to 205 °C; in that of `CN(C)CC(O)c1c(-c2ccc3ccccc3c2)[nH]c2ccccc12` (configuration not stated), 172 to 174 °C. Molecule `CC(C)=CCCC(C)=CCOc1ccc(C(=O)NCCc2ccccn2)cc1` showed a melting point of 67 to 69 °C. The molecule `Cc1cc(C#N)c2ccccn12` showed a melting point of 98 to 100 °C.

Take `CC1(NC(=O)c2ccccc2)COC(c2nc(-c3ccc(F)cc3)c(-c3ccncc3)[nH]2)OC1` (configuration not stated): the melting point lay within 235 to 236 °C. `Cc1sc2cc3ccccc3c(-c3ccc(OS(=O)(=O)c4ccc(C(=O)O)c(O)c4)c(C4CCCC4)c3)c2c1C` had a melting point of 230 to 237 °C. In the case of `Cn1c(Br)c(C#N)c(C(F)(F)F)c1Br` it was 101 to 104 °C; in that of `Cc1ccccc1C1SC2(CCN(CCCC(=O)c3ccc(F)cc3)CC2)c2ccccc21` (configuration not stated), 143 to 145 °C; in that of `COc1ccc2c(c1)c1c3c(c(-c4ccccc4)cc1n2CCO)C(=O)NC3=O`, 262 to 264 °C. Molecule `COc1cccc(-n2c(CCl)nc3ccccc3c2=O)c1` showed a melting point of 180 to 182 °C. In the case of `O=[N+]([O-])c1cc(F)ccc1NC1CCN(Cc2ccccc2)CC1` it was 86 to 87 °C; in that of `Cn1nnnc1SCC(=O)C12CC3CC(CC(C3)C1)C2`, 112 to 113 °C. In the case of `O=S(=O)(C(/C=C/c1ccc(F)cc1)c1c(F)c(F)c(F)c(F)c1F)C(/C=C/c1ccc(F)cc1)c1c(F)c(F)c(F)c(F)c1F` (configuration not stated), the melting point was in the range of 133 to 136 °C.

The molecule `O=C(Oc1c(F)c(F)c(F)c(F)c1F)c1ccc(F)c(F)c1Nc1ccc(I)cc1Cl` had a melting point of 108 to 110 °C. `CS(=O)c1n[nH]c2ccccc2c1=O` (configuration not stated) returned a melting point of 266 to 269 °C. `CCOc1cc(C(=O)CCCC2CCCCC2)c(OCC)cc1C` returned a melting point of 49 to 50 °C.

`OCCc1ccc(OCCCCl)cc1`: the melting point was 49 to 50 °C.

`O=C1CCCc2c(O)cccc2N1` displayed a melting point of 244 to 245 °C. Molecule `CCOC(CN1C(=O)C2=C(c3cccs3)N(CC(OCC)OCC)C(=O)C2=C1c1cccs1)OCC` returned a melting point of 167 to 169 °C. In turn, `CCCc1c(OCCCCCc2c(Cl)ccc(O)c2O)ccc(C(=O)O)c1O` registered a melting point of 178 to 181 °C.

The molecule `COCOc1ccccc1-c1cc(-c2cccc(CN=[N+]=[N-])c2)c(C#N)c(NC(=O)c2cccs2)n1` had a melting point of 139 to 140 °C.

`CC(=O)NC[C@H]1CN(c2ccc(N3CCC(Cc4nnn(C)n4)CC3)c(F)c2)C(=O)O1` registered a melting point of 136 to 138 °C. To `CCCCOc1c(CNC(=O)OC(C)(C)C)n(CC(C)(C)C)c(=O)c2ccc(C=O)cc12` belongs 149 to 150 °C. On to `CS(=O)(=O)c1ccc(-c2cnn(-c3cccc(Cl)c3)c(=O)c2C2CCCCC2)cc1`, for which the melting point lay in the range of 85 to 90 °C. In the case of `O=[N+]([O-])c1cc(CO)ccc1Oc1ccc(OCc2ccccc2)cc1` it was 72 to 73 °C; in that of `CN1C(=O)C(c2ccc(OC(F)F)cc2)(c2cccc(C(F)CCCF)c2)N=C1N` (configuration not stated), 54 to 57 °C; in that of `CC(O)(C(O)CI)C(O)CI` (configuration not stated), 105 to 106 °C. `CCCCCCCCCCCCCCCCCCC1CC(=O)N(c2ccc(N)cc2O)C1=O` (configuration not stated) showed a melting point of 85 to 90 °C. To `NCCc1ccc(CCNS(=O)(=O)c2ccc(Cl)cc2)cc1` belongs 90 to 93 °C; to `O=C(CCc1ccccc1)Nc1cc(-c2nnc(CCc3cccc(C(F)(F)F)c3)o2)ccn1`, 169 to 170 °C; to `COc1ccc2c(C(=O)N(C=O)CC(=O)O)cccc2c1C(F)(F)F`, 142 to 144 °C. Molecule `CCCCCc1ncc(C(=O)O)s1` came in with a melting point of 90 °C.

For `COc1ccc(-c2cc3cc(Cl)ccc3o2)cc1`, the melting point lay in the range of 183 to 185 °C. On to `CCCc1cc(C#N)sc1-c1ccc2c(c1)C(C)(C)OC(=S)N2`, for which the melting point lay in the range of 174 to 175 °C. As for `COc1ccc(C(C)(C)CC(O)(C(=O)O)C(F)(F)F)cc1Br` (configuration not stated), the melting point lay in the range of 94 to 96 °C. In the case of `COC(=O)c1c(NCc2ccc(OC)c(Cl)c2)nc(SC)nc1OC` it was 124 to 126 °C; in that of `O=c1c2ccccc2nc2n1CS(=O)(=O)N2`, above 300 °C. In the case of `CCCCc1nn(-c2cc(NC(=O)CCC)ccc2Cl)c(=O)n1Cc1ccc(-c2ccccc2S(=O)(=O)NC(=O)c2ccccc2Cl)cc1` it was above 130 °C; in that of `O=c1[nH]c(=O)n(CCCCN2CC=C(c3ccccc3)CC2)c2cc([N+](=O)[O-])ccc12`, 242 to 244 °C; in that of `Cc1ccc(S(=O)(=O)Oc2ccc(S(=O)(=O)C3(C(=O)C(C)C)CC3)cc2)cc1`, 106 to 107 °C.
